Data as given in patent US12018059B2, “Human amylin analog polypeptides and methods of use” (Intarcia Therapeutics, Inc., priority 2018, dated 2024).
Starred links: 1 amine or outer side, 2 acyl side, 3 side chain; linkers in the order of their positions; H or OH if unused. Positions of bridges follow the written chain, without caps; N, C: chain ends. Non-standard residues stand in square brackets, D forms with d. Residues, ends and D or L forms follow the SMILES beside them. Groups on a side chain read outwards from the residue. *: point of attachment. X3 = O=C(O)CCCCCCCCCCCCCCCCCCC(=O)N[C@@H](CCC(=O)NCOCCOCC(=O)NCOCCOCC(=O)*)C(=O)O; C20 diacid = O=C(O)CCCCCCCCCCCCCCCCCCC(=O)*; C18 diacid = O=C(O)CCCCCCCCCCCCCCCCC(=O)*; γGlu = O=C(O)[C@H](CCC(=O)[*:2])N[*:1]; Palmitoyl = CCCCCCCCCCCCCCCC(=O)*

Test: in vivo
Design: species or system Sprague-Dawley rats
Details: rat, iv, 0.033 mg/kg
In short: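 Peptide plasma levels measured by UPLC-MS/MS (C18, product-ion monitoring) after protein precipitation or WCX SPE, calibrated in K2EDTA/protease-inhibitor rat plasma. Dosing in non-fasted male Sprague-Dawley rats (n=3): 0.033 mg/kg over 1 h by IV or SC infusion, or 0.3 mg/kg SC bolus; sampling up to 48 h.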
`CC[C@H](C)[C@H](NC(=O)[C@@H]1CCCN1C(=O)CNC(=O)[C@H](Cc1ccccc1)NC(=O)[C@H](CC(N)=O)NC(=O)[C@H](CC(N)=O)NC(=O)[C@H](CO)NC(=O)[C@H](CO)NC(=O)[C@H](CCCCN)NC(=O)[C@H](Cc1c[nH]cn1)NC(=O)[C@@H](CCCCNC(=O)CC[C@H](NC(=O)CC[C@H](NC(=O)CC[C@H](NC(=O)CCCCCCCCCCCCCCCCC(=O)O)C(=O)O)C(=O)O)C(=O)O)NC(=O)[C@H](CCC(=O)O)NC(=O)[C@H](CC(N)=O)NC(=O)[C@H](C)NC(=O)[C@H](CC(C)C)NC(=O)[C@H](CCCNC(=N)N)NC(=O)[C@H](CCC(N)=O)NC(=O)[C@@H](NC(=O)[C@H](C)NC(=O)[C@@H]1CSSC[C@H](NC(=O)[C@@H](N)CO)C(=O)N[C@@H](CC(N)=O)C(=O)N[C@@H]([C@@H](C)O)C(=O)N[C@@H](CO)C(=O)N[C@@H]([C@@H](C)O)C(=O)N1)[C@@H](C)O)C(=O)N[C@@H](CC(C)C)C(=O)N1CCC[C@H]1C(=O)N1CCC[C@H]1C(=O)N[C@H](C(=O)N[C@@H](CCCCN)C(=O)N[C@H](C(=O)NCC(=O)N[C@@H](CO)C(=O)N[C@@H](CCC(=O)O)C(=O)N[C@H](C(=O)N[C@@H](Cc1ccc(O)cc1)C(N)=O)[C@@H](C)O)C(C)C)[C@@H](C)O` [Compound A104] (H-SCNTSTCATQRLANE[dK]([γGlu-γGlu-γGlu-C18 diacid])HKSSNNFGPILPPTKVGSETY-NH2; disulfide 2-7) showed a Vd of 0.137 L/kg, a clearance of 0.108 mL/min/kg and a half-life of 16.6 h.
`CCCCCCCCCCCCCCCC(=O)N[C@@H](CCC(=O)N[C@@H](CCC(=O)N[C@@H](CCC(=O)N[C@@H](CCC(=O)N[C@@H](CCC(=O)NCCCC[C@@H](NC(=O)[C@H](CCC(=O)O)NC(=O)[C@H](CC(N)=O)NC(=O)[C@H](C)NC(=O)[C@H](CC(C)C)NC(=O)[C@H](CCCNC(=N)N)NC(=O)[C@H](CCC(N)=O)NC(=O)[C@@H](NC(=O)[C@H](C)NC(=O)[C@@H]1CSSC[C@H](NC(=O)[C@@H](N)CO)C(=O)N[C@@H](CC(N)=O)C(=O)N[C@@H]([C@@H](C)O)C(=O)N[C@@H](CO)C(=O)N[C@@H]([C@@H](C)O)C(=O)N1)[C@@H](C)O)C(=O)N[C@@H](Cc1c[nH]cn1)C(=O)N[C@@H](CCCCN)C(=O)N[C@@H](CO)C(=O)N[C@@H](CO)C(=O)N[C@@H](CC(N)=O)C(=O)N[C@@H](CC(N)=O)C(=O)N[C@@H](Cc1ccccc1)C(=O)NCC(=O)N1CCC[C@H]1C(=O)N[C@H](C(=O)N[C@@H](CC(C)C)C(=O)N1CCC[C@H]1C(=O)N1CCC[C@H]1C(=O)N[C@H](C(=O)N[C@@H](CCCCN)C(=O)N[C@H](C(=O)NCC(=O)N[C@@H](CO)C(=O)N[C@@H](CCC(=O)O)C(=O)N[C@H](C(=O)N[C@@H](Cc1ccc(O)cc1)C(N)=O)[C@@H](C)O)C(C)C)[C@@H](C)O)[C@@H](C)CC)C(=O)O)C(=O)O)C(=O)O)C(=O)O)C(=O)O` [Compound A91] (H-SCNTSTCATQRLANE[dK]([γGlu-γGlu-γGlu-γGlu-γGlu-Palmitoyl])HKSSNNFGPILPPTKVGSETY-NH2; disulfide 2-7) showed a Vd of 0.194 L/kg, a clearance of 0.194 mL/min/kg and a half-life of 13.2 h.
Work on `CC[C@H](C)[C@H](NC(=O)[C@@H]1CCCN1C(=O)CNC(=O)[C@H](Cc1ccccc1)NC(=O)[C@H](CC(N)=O)NC(=O)[C@H](CC(N)=O)NC(=O)[C@H](CO)NC(=O)[C@H](CO)NC(=O)[C@H](CCCCN)NC(=O)[C@H](Cc1c[nH]cn1)NC(=O)[C@H](CC(C)C)NC(=O)[C@@H](CCCCNC(=O)CC[C@H](NC(=O)CC[C@H](NC(=O)CCCCCCCCCCCCCCCCCCC(=O)O)C(=O)O)C(=O)O)NC(=O)[C@H](CC(N)=O)NC(=O)[C@H](C)NC(=O)[C@H](CC(C)C)NC(=O)[C@H](CCCNC(=N)N)NC(=O)[C@H](CCC(N)=O)NC(=O)[C@@H](NC(=O)[C@H](C)NC(=O)[C@@H]1CSSC[C@H](NC(=O)[C@@H](N)CO)C(=O)N[C@@H](CC(N)=O)C(=O)N[C@@H]([C@@H](C)O)C(=O)N[C@@H](CO)C(=O)N[C@@H]([C@@H](C)O)C(=O)N1)[C@@H](C)O)C(=O)N[C@@H](CC(C)C)C(=O)N1CCC[C@H]1C(=O)N1CCC[C@H]1C(=O)N[C@H](C(=O)N[C@@H](CCCCN)C(=O)N[C@H](C(=O)NCC(=O)N[C@@H](CO)C(=O)N[C@@H](CCC(=O)O)C(=O)N[C@H](C(=O)N[C@@H](Cc1ccc(O)cc1)C(N)=O)[C@@H](C)O)C(C)C)[C@@H](C)O` [Compound A97] (H-SCNTSTCATQRLAN[dK]([γGlu-γGlu-C20 diacid])LHKSSNNFGPILPPTKVGSETY-NH2; disulfide 2-7) yielded a Vd of 0.0995 L/kg, a clearance of 0.0604 mL/min/kg and a half-life of 21 h.
Molecule `CCCCCCCCCCCCCCCC(=O)N[C@@H](CCC(=O)NCCCC[C@H](NC(=O)[C@@H]1CSSC[C@H](NC(=O)[C@@H](N)CO)C(=O)N[C@@H](CC(N)=O)C(=O)N[C@@H]([C@@H](C)O)C(=O)N[C@@H](CO)C(=O)N[C@@H]([C@@H](C)O)C(=O)N1)C(=O)N[C@H](C(=O)N[C@@H](CCC(N)=O)C(=O)N[C@@H](CCCNC(=N)N)C(=O)N[C@@H](CC(C)C)C(=O)N[C@@H](C)C(=O)N[C@@H](CC(N)=O)C(=O)N[C@@H](CCC(=O)O)C(=O)N[C@@H](CC(C)C)C(=O)N[C@@H](Cc1c[nH]cn1)C(=O)N[C@@H](CCCCN)C(=O)N[C@@H](CO)C(=O)N[C@@H](CO)C(=O)N[C@@H](CC(N)=O)C(=O)N[C@@H](CC(N)=O)C(=O)N[C@@H](Cc1ccccc1)C(=O)NCC(=O)N1CCC[C@H]1C(=O)N[C@H](C(=O)N[C@@H](CC(C)C)C(=O)N1CCC[C@H]1C(=O)N1CCC[C@H]1C(=O)N[C@H](C(=O)N[C@@H](CCCCN)C(=O)N[C@H](C(=O)NCC(=O)N[C@@H](CO)C(=O)N[C@@H](CCC(=O)O)C(=O)N[C@H](C(=O)N[C@@H](Cc1ccc(O)cc1)C(N)=O)[C@@H](C)O)C(C)C)[C@@H](C)O)[C@@H](C)CC)[C@@H](C)O)C(=O)O` [Compound A108] (H-SCNTSTCK([γGlu-Palmitoyl])TQRLANELHKSSNNFGPILPPTKVGSETY-NH2; disulfide 2-7) has a Vd of 0.396 L/kg, a clearance of 6.45 mL/min/kg and a half-life of 1.01 h.
With `CCCCCCCCCCCCCCCC(=O)N[C@@H](CCC(=O)NCCCC[C@H](NC(=O)[C@H](CC(C)C)NC(=O)[C@H](CCC(=O)O)NC(=O)[C@H](CC(N)=O)NC(=O)[C@H](C)NC(=O)[C@H](CC(C)C)NC(=O)[C@H](CCCNC(=N)N)NC(=O)[C@H](CCC(N)=O)NC(=O)[C@@H](NC(=O)[C@H](C)NC(=O)[C@@H]1CSSC[C@H](NC(=O)[C@@H](N)CO)C(=O)N[C@@H](CC(N)=O)C(=O)N[C@@H]([C@@H](C)O)C(=O)N[C@@H](CO)C(=O)N[C@@H]([C@@H](C)O)C(=O)N1)[C@@H](C)O)C(=O)N[C@@H](CCCCN)C(=O)N[C@@H](CO)C(=O)N[C@@H](CO)C(=O)N[C@@H](CC(N)=O)C(=O)N[C@@H](CC(N)=O)C(=O)N[C@@H](Cc1ccccc1)C(=O)NCC(=O)N1CCC[C@H]1C(=O)N[C@H](C(=O)N[C@@H](CC(C)C)C(=O)N1CCC[C@H]1C(=O)N1CCC[C@H]1C(=O)N[C@H](C(=O)N[C@@H](CCCCN)C(=O)N[C@H](C(=O)NCC(=O)N[C@@H](CO)C(=O)N[C@@H](CCC(=O)O)C(=O)N[C@H](C(=O)N[C@@H](Cc1ccc(O)cc1)C(N)=O)[C@@H](C)O)C(C)C)[C@@H](C)O)[C@@H](C)CC)C(=O)O` [Compound A10] (H-SCNTSTCATQRLANELK([γGlu-Palmitoyl])KSSNNFGPILPPTKVGSETY-NH2; disulfide 2-7) the Vd was 0.245 L/kg, the clearance was 3.72 mL/min/kg and the half-life was 0.965 h.
`CC[C@H](C)[C@H](NC(=O)[C@@H]1CCCN1C(=O)CNC(=O)[C@H](Cc1ccccc1)NC(=O)[C@H](CC(N)=O)NC(=O)[C@H](CC(N)=O)NC(=O)[C@H](CO)NC(=O)[C@H](CO)NC(=O)[C@H](CCCCN)NC(=O)[C@H](Cc1c[nH]cn1)NC(=O)[C@H](CC(C)C)NC(=O)[C@H](CCCCNC(=O)CC[C@H](NC(=O)CC[C@H](NC(=O)COCCOCNC(=O)COCCOCNC(=O)CC[C@H](NC(=O)CCCCCCCCCCCCCCCCCCC(=O)O)C(=O)O)C(=O)O)C(=O)O)NC(=O)[C@H](Cc1ccc(O)cc1)NC(=O)[C@H](C)NC(=O)[C@H](CC(C)C)NC(=O)[C@H](CCCNC(=N)N)NC(=O)[C@H](CCC(N)=O)NC(=O)[C@@H](NC(=O)[C@H](C)NC(=O)[C@@H]1CSSC[C@H](NC(=O)[C@@H](N)CO)C(=O)N[C@@H](CC(N)=O)C(=O)N[C@@H]([C@@H](C)O)C(=O)N[C@@H](CO)C(=O)N[C@@H]([C@@H](C)O)C(=O)N1)[C@@H](C)O)C(=O)N[C@@H](CC(C)C)C(=O)N1CCC[C@H]1C(=O)N1CCC[C@H]1C(=O)N[C@H](C(=O)N[C@@H](CCCCN)C(=O)N[C@H](C(=O)NCC(=O)N[C@@H](CO)C(=O)N[C@@H](CCC(=O)O)C(=O)N[C@H](C(=O)N[C@@H](Cc1ccc(O)cc1)C(N)=O)[C@@H](C)O)C(C)C)[C@@H](C)O` [Compound A85] (H-SCNTSTCATQRLAYK([γGlu-γGlu-X3])LHKSSNNFGPILPPTKVGSETY-NH2; disulfide 2-7; N-terminus assumed) showed a Vd of 0.146 L/kg, a clearance of 0.0496 mL/min/kg and a half-life of 36.7 h.
`CCCCCCCCCCCCCCCC(=O)N[C@@H](CCC(=O)NCCCC[C@H](NC(=O)[C@H](CC(N)=O)NC(=O)[C@H](C)NC(=O)[C@H](CC(C)C)NC(=O)[C@H](CCCNC(=N)N)NC(=O)[C@H](CCC(N)=O)NC(=O)[C@@H](NC(=O)[C@H](C)NC(=O)[C@@H]1CSSC[C@H](NC(=O)[C@@H](N)CO)C(=O)N[C@@H](CC(N)=O)C(=O)N[C@@H]([C@@H](C)O)C(=O)N[C@@H](CO)C(=O)N[C@@H]([C@@H](C)O)C(=O)N1)[C@@H](C)O)C(=O)N[C@@H](CC(C)C)C(=O)N[C@@H](Cc1c[nH]cn1)C(=O)N[C@@H](CCCCN)C(=O)N[C@@H](CO)C(=O)N[C@@H](CO)C(=O)N[C@@H](CC(N)=O)C(=O)N[C@@H](CC(N)=O)C(=O)N[C@@H](Cc1ccccc1)C(=O)NCC(=O)N1CCC[C@H]1C(=O)N[C@H](C(=O)N[C@@H](CC(C)C)C(=O)N1CCC[C@H]1C(=O)N1CCC[C@H]1C(=O)N[C@H](C(=O)N[C@@H](CCCCN)C(=O)N[C@H](C(=O)NCC(=O)N[C@@H](CO)C(=O)N[C@@H](CCC(=O)O)C(=O)N[C@H](C(=O)N[C@@H](Cc1ccc(O)cc1)C(N)=O)[C@@H](C)O)C(C)C)[C@@H](C)O)[C@@H](C)CC)C(=O)O` [Compound A42] (H-SCNTSTCATQRLANK([γGlu-Palmitoyl])LHKSSNNFGPILPPTKVGSETY-NH2; disulfide 2-7) gave a Vd of 0.552 L/kg, a clearance of 23.7 mL/min/kg and a half-life of 0.391 h.
